Measured values reported in the supplement of paper PMC10949913.

Tests used:
Experiment in all cases: area under concentration-response curve (viability) (AUC (a.u.)); higher = less active
Settings in all cases: 48 h
CU-ACC1 = tested on: CU-ACC1
How it was run: (§1)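 Luminescence from CellTiter-Glo, read after 48 h, measured three adrenocortical carcinoma cell lines treated in 1,536-well plates with library compounds at 11 concentrations. Values were normalised per plate to vehicle and empty-well controls. The AC50 and area under the curve come from fitted concentration-response curves in inhibitory or non-responding classes only.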

CU-ACC2 = tested on: CU-ACC2
How it was run: as §1

NCI-H295R = tested on: NCI-H295R
How it was run: as §1

Structure (SMILES)	area under concentration-response curve (CU-ACC1)	area under concentration-response curve (CU-ACC2)	area under concentration-response curve (NCI-H295R)
CNc1nc(Nc2ccc(C(=O)N3CCOCC3)cc2OC)ncc1Cl	511	607	555
C[C@](Cc1c[nH]c2ccccc12)(NC(=O)OC1C2CC3CC(C2)CC1C3)C(=O)NC[C@H](NC(=O)CCC(=O)O)c1ccccc1 (stereo partly specified)	510	582	537
O=C(O)C(=O)Nc1cccc(-c2nnn[nH]2)c1	547	645	553
c1coc(CNc2ncnc3nc[nH]c23)c1	409	556	565
CC(NC1=NC=NC2=C1[NH]C=N2)\C3=C\C4=C(C(=CC=C4)Cl)C(=O)N3C5=CC=CC=C5 (stereo unspecified)	432	569	580
NCCCCCC(=O)O	509	585	540
COCCOc1ccc(N2CCN(CCn3ncc4c3nc(N)n3nc(-c5ccco5)nc43)CC2)cc1	552	606	530
COC1=CC=C(C=C1)/C2=C(O)/C(=O)C3=C(O)C=C(O)C(=C3O2)CC=C(C)C	415	388	416
Oc1nc(-c2ccc(C(F)(F)F)cc2)nc2c1CSCC2	511	509	483
CC(=O)[C@H]1CC[C@H]2[C@@H]3C/C=C4/C[C@@H](O)CC[C@]4(C)[C@H]3CC[C@]12C	517	627	530
Cc1noc(-c2ccc(-c3ccc(C4(C(=O)O)CC4)cc3)cc2)c1NC(=O)O[C@H](C)c1ccccc1	485	446	526
CN[C@@H]1[C@H](O[C@H]2[C@H](O[C@@H]3[C@@H](O)[C@H](O)[C@@H](NC(=N)N)[C@H](O)[C@H]3NC(=N)N)O[C@@H](C)[C@]2(O)C=O)O[C@@H](CO)[C@H](O)[C@H]1O	516	606	553
CC1=C(F)C=CC(=C1)N2C(=O)\C=C/C3=C2C4=C([NH]C=C4)N=C3	519	509	527
OC[C@H]1O[C@@H]2[C@@H](OC\3=N\C(=N)\C=C/[N@@]23)[C@@H]1O	488	504	472
CC[C@H]1OC(=O)[C@H](C)C(=O)[C@H](C)[C@@H](O[C@H]2O[C@H](C)C[C@H](N(C)C)[C@H]2O)[C@](C)(OC)C[C@@H](C)C(=O)[C@H](C)[C@H]2N(CCCCn3cnc(-c4cccnc4)c3)C(=O)O[C@]12C	436	452	419
OC1=C(Cl)C=C(N\C2=C(\C(=O)NC2=O)C3=C(C=CC=C3)[N+]([O-])=O)C=C1	502	475	507
O=[N+]([O-])c1cnc(Sc2nnc(O)n2-c2ccc3c(c2)OCCO3)s1	529	611	517
COc1ccc2cccc(CCNC(C)=O)c2c1	515	589	579
CCNC(=O)[C@H]1O[C@@H](n2cnc3c(N)nc(NCCc4ccc(CCC(=O)O)cc4)nc32)[C@H](O)[C@@H]1O	404	587	537
CCCCCCCc1ccc(CCc2cccc(O)c2C(=O)O)cc1	515	574	534
Cc1ccc(C)c(OCCCC(C)(C)C(=O)O)c1	569	661	572
Fc1ccc(Cl)cc1-c1nc(Nc2ccncc2)c2nccnc2n1	553	612	549
O=C(O)CNC(=O)c1ncc(-c2cccc(Cl)c2)cc1O	486	568	516
NC/1=N/C(=O)C2=C([NH]C=C2CCC3=CC=C(C=C3)C(=O)N[C@@H](CCC(O)=O)C(O)=O)N1	523	590	537

Structure (SMILES)	area under concentration-response curve (CU-ACC1)	area under concentration-response curve (CU-ACC2)	area under concentration-response curve (NCI-H295R)
F\C1=C\N(C2CCCO2)C(=O)NC1=O (stereo unspecified)	512	612	511
CCCC1OC2C[C@H]3[C@@H]4CCC5=CC(=O)C=C[C@]5(C)[C@H]4C(O)C[C@]3(C)[C@]2(C(=O)CO)O1 (stereo partly specified)	562	661	607
CCOC(=O)[C@H](CCc1ccccc1)N[C@@H](C)C(=O)N1[C@H](C(=O)O)C[C@@H]2CCC[C@@H]21	545	649	595
O=C(NCc1cccc(O)c1)Nc1nc(-c2ccncc2)cs1	546	582	559
CN1CCN(CC1)C2=C(NC(=O)C/3=C/NC(=O)/C=C3C(F)(F)F)C=C(C=C2)C4=CC(=CC=C4)CN5CCOCC5	508	610	514
CCC(CC)CC1(C(=O)Nc2ccccc2SC(=O)C(C)C)CCCCC1	519	593	537
Cc1ccc(-c2nc(N)nc3c2nnn3Cc2cccc(CO[C@H]3CCOC3)n2)o1	520	569	561
C=C(C)[C@@H]1CC[C@]2(C(=O)O)CC[C@]3(C)[C@H](CC[C@@H]4[C@@]5(C)CC[C@H](O)C(C)(C)[C@@H]5CC[C@]43C)[C@@H]12	541	646	587
NNc1nncc2ccccc12	525	568	534
C[C@H]1CC2[C@@H]3CCC/4=C/C(=O)/C=C\[C@]4(C)[C@@]3(F)[C@@H](O)C[C@]2(C)[C@@]1(O)C(=O)CO (stereo partly specified)	477	572	551
C[C@@H]1CC[C@H]2[C@@H](C)C(=O)O[C@@H]3O[C@@]4(C)CC[C@@H]1[C@]32OO4	547	604	556
CCN1C(=O)\C(=C/C2=C1N=C(NC3=CC=C(N4CCNCC4)C(=C3)F)N=C2)C5=CC=C(Cl)C=C5Cl	518	580	537
OC[C@@H](O)[C@@H](O)[C@H](O)[C@@H](O)CO	562	645	592
CC(COc1ccccc1)N(CCCl)Cc1ccccc1 (stereo unspecified)	549	653	584
CN1\C(=C([O-])/C2=CC=CC=C2[S+]1([O-])=O)C(=O)NC3=NC=C(C)S3	479	572	525
Cc1ccc([S+](=O)([O-])Nc2nc3ccccc3nc2Nc2ccc3nsnc3c2)cc1	558	640	535
CCOC\1=C(/C(=O)NC2=CC=C(OC3=C(Cl)C(=NC=C3)N)C(=C2)F)C(=O)N(\C=C1)C4=CC=C(F)C=C4	522	578	530
O[C@@H]1C\C(=C/C(O)C1O)C(O)=O (stereo partly specified)	512	614	581
CC(C)C[C@H](NC(=O)[C@H](Cc1ccccc1)NC(=O)OCc1ccccc1)C(=O)C=O	456	531	504
Cc1cc(C)c2c(c1)[C@@H](N(Cc1cc(C(F)(F)F)cc(C(F)(F)F)c1)c1nnn(C)n1)CCCN2C[C@H]1CC[C@H](C(=O)O)CC1	489	582	529
C[C@]1(c2nc3c(C(N)=O)cccc3[nH]2)CCCN1	495	564	521
CC1(C)CC(O)CC(C)(C)N1[O]	517	626	511
C/C1=C/C[C@@H](/C(C)=C/c2csc(C)n2)OC(=O)C[C@H](O)C(C)(C)C(=O)[C@H](C)[C@@H](O)[C@@H](C)CCC1	480	567	426
